In patent publication US6075044A, “Heterocyclic derivatives as inhibitors of purine salvage phosphoribosyltransferases” (The Regents of the University of California, priority 1998, dated 2000):
Read-outs that look alike come from different tables or passages of the source.

Assays:
Assay type in all cases: biochemical
[1] = biological target: T1, GPRTase from G. lamblia (Giardia duodenalis, UniProt Q24973); assay: Enzyme assay, [14C]-guanine to GMP conversion, G. lamblia GPRTase; details: recombinant enzyme, 10% DMSO, 37° C., 5 min, pH 6.8, read-out: IC50 GLG (GPRTase from G. lamblia)
T1 sequence (Q24973 1-230): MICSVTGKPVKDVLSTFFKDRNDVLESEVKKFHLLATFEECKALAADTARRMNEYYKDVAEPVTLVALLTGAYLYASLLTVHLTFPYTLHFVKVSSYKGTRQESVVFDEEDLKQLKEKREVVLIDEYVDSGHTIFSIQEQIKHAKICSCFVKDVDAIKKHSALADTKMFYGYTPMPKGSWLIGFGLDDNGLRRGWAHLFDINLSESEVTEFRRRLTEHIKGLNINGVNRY
Description: (§1) Protocol For Testing Compounds of Formula I Against Tritrichomonas foetus HGXPRTase, Giardia lamblia GPRTase and Human HGPRTase
(§2) The enzyme assay mixture, in a final volume of 20 μl, consisted of the following:
(§3) Bis-Tris-HCl, pH 6.8 0.3 M
(§4) 5-Phospho-1-ribosylpyrophosphate 0.1 mM
(§5) [^14 C]-guanine (46 mCi/mmole) 22 μM
(§6) Thus, all the assay mixtures contain 10% DMSO.
(§7) The recombinant enzyme, purified to homogeneity in the native form, was diluted in a buffer solution of 50 mM Bis-Tris-HCl, pH 6.8, 6 mM MgCl2, and 1 mM dithiothreitol to a final concentration of 34 μg enzyme protein per ml. Two and one half of the diluted enzyme solution was added to the 20 μl reaction mixture, and maintained at 37° C., to start the enzyme-catalyzed reaction. The reaction was allowed to proceed at 37° C. for exactly 5 min, and then stopped by adding 23 μl of 1 mM guanine and 1 mM GMP to the reaction mixture.
(§8) Twenty μl of the final mixture was spotted on a polyethyleneimine-cellulose thin layer plate and chromatographed with 5 mM ammonium acetate pH 5.0. The unreacted [^14 C]-guanine migrated at the forefront of the chromatography with an Rf value of 0.62, whereas the product [^14 C]-GMP remained at the origin due to the negative charge of the molecule at pH 5.0. The spots of guanine and GMP were cut out from the plate, and the radioactivity in each spot measured with a Beckman LS-3801 scintillation counter. The radioactivities associated with the GMP and diminished from the guanine sample were used to calculate the amount of substrate converted to product within a unit time period.
(§9) Protocol For Testing Compounds of Formula II Against Tritrichomonas foetus HGXPRTase Giardia lamblia GPRTase and Human HGPRTase
as §7, with “half μl” for “half”

[2] = biological target: T2, Human HGPRTase (Homo sapiens, UniProt P00492); assay: Enzyme assay, [14C]-guanine to GMP conversion, human HGPRTase; details: recombinant enzyme, 10% DMSO, 37° C., 5 min, pH 6.8, read-out: IC50 HH (Human HGPRTase)
T2 sequence (P00492 1-218): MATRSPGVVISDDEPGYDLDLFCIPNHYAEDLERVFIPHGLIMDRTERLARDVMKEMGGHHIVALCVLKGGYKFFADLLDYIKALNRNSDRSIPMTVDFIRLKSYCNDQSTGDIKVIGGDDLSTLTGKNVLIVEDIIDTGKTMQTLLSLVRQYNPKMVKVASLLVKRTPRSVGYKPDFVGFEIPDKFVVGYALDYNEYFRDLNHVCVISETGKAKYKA
Description: as §1, §2, §3, §4, §5, §6, §7, §8, §9
as §7, with “half μl” for “half”

[3] = biological target: T3, HGXPRTase from T. foetus (Tritrichomonas foetus, UniProt P51900); assay: Enzyme assay, [14C]-guanine to GMP conversion, T. foetus HGXPRTase; details: read-out: IC50 TFH (HGXPRTase from T. foetus)
T3 construct: made in house; host or cells: Escherichia coli
T3 sequence (P51900 1-183): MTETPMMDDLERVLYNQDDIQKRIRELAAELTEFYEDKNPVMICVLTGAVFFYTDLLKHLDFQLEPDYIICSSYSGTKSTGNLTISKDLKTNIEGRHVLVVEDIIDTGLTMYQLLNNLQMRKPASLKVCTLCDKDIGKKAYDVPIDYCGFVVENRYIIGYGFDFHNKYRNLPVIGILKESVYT
Description: as §1, §2, §3, §4, §5, §6, §7, §8, §9
as §7, with “half μl” for “half”

[4] = Table 2, compounds of Formula I
[5] = Table 2, compounds of Formula I, recombinant enzyme, 10% DMSO, 37° C., 5 min, pH 6.8
[6] = Table 4, compounds of Formula II
[7] = Table 4, compounds of Formula II, recombinant enzyme, 10% DMSO, 37° C., 5 min, pH 6.8

IC50 [1, 4] [µM] | IC50 [2, 4] [µM] | IC50 [3, 5] [µM] | IC50 [1, 6] [µM] | IC50 [2, 6] [µM] | IC50 [3, 7] [µM] | IC50 [3] [µM] | Structure (SMILES)
> 1000 |  | > 1000 |  |  |  |  | O=C1Nc2ccccc2C1=NN=Cc1cc(Cl)cc(Cl)c1O [(I)4, 3-(2-hydroxy-3,5-dichlorophenylidenehydrazono)-1,3-dihydroindol-2-one]
> 1000 | > 1000 | 460 |  |  |  |  | O=C1Nc2ccccc2C1=NN=Cc1cc(Br)ccc1O [(I)5, 3-(2-hydroxy-5-bromophenylidenehydrazono)-1,3-dihydroindol-2-one]
> 1000 | > 1000 | 300 |  |  |  |  | O=C1Nc2ccc(Br)cc2C1=NN=Cc1ccc(Cl)c(Cl)c1 [(I)6, 3-(3,4-dichlorophenylidenehydrazono)-5-bromo-1,3-dihydroindol-2-one]
> 1000 | > 1000 | 200 |  |  |  |  | COc1ccc(CCNC=C2C(=O)Nc3ccccc32)cc1 [(I)7]
 |  |  | 30 | > 1000 |  | 50 | O=C(Nc1ccc(Cl)c(Cl)c1)c1ccc2c(c1)C(=O)OC2=O [(II)3, 5-[N-(3,4-dichlorophenyl)carbamoyl]-1,3-isobenzofurandione]
 |  |  | 200 | > 1000 | 80 |  | O=C(Nc1ccc(Cl)cc1Cl)c1ccc2c(c1)C(=O)OC2=O [(II)5, 5-[N-(2,4-dichlorophenyl)carbamoyl]-1,3-isobenzofurandione]

Second part, the compound before the results:

Structure (SMILES) | IC50 [1, 4] [µM] | IC50 [2, 4] [µM] | IC50 [3, 5] [µM] | IC50 [1, 6] [µM] | IC50 [2, 6] [µM] | IC50 [3, 7] [µM] | IC50 [3] [µM]
O=C1Nc2ccccc2C1=NNc1ccc([N+](=O)[O-])cc1 [(I)1, 3-(4-nitrophenylhydrazono)-1,3-dihydroindol-2-one] | > 1000 | 200 | 240 |  |  |  | 
O=C1Nc2ccccc2C1=NN=Cc1ccc([N+](=O)[O-])cc1 [(I)2, 3-(4-nitrophenylidenehydrazono)-1,3-dihydroindol-2-one] | > 1000 | > 1000 | 50 |  |  |  | 
O=C1Nc2ccccc2C1=NN=Cc1ccc(Cl)cc1 [(I)3, 3-(4-chlorophenylidenehydrazono)-1,3-dihydroindol-2-one] | > 1000 | > 1000 | 170 |  |  |  | 
O=C(COc1ccc([N+](=O)[O-])cc1)NN=C1C(=O)Nc2ccccc21 [(I)8] | > 1000 | > 1000 | 180 |  |  |  | 
CC(Oc1ccc(Cl)cc1Cl)C(=O)NN=C1C(=O)Nc2ccc(Br)cc21 (centres unmarked) [(I)9, 3-[2-(2,4-dichlorophenoxy)propanoylhydrazono]-5-bromo-1,3-dihydroindol-2-one] | 30 | > 1000 | 85 |  |  |  | 
COc1ccc(CC(=O)N/N=C2\C(=O)Nc3ccc(Br)cc32)cc1OC [(I)10, 3-[(3,4-dimethoxyphenyl)acetylhydrazono]-5-bromo-1,3-dihydroindol-2-one] | 90 | > 1000 | 320 |  |  |  | 
O=C(Nc1cccc([N+](=O)[O-])c1)c1ccc2c(c1)C(=O)OC2=O [(II)1, 5-[N-(3-nitrophenyl)carbamoyl]-1,3-isobenzofurandione] |  |  |  | > 1000 | > 1000 | 300 | 
CC(=O)Nc1ccc(NC(=O)c2ccc3c(c2)C(=O)OC3=O)cc1 [(II)2, 5-[N-(4-acetamidophenyl)carbamoyl]-1,3-isobenzofurandione] |  |  |  | > 1000 | > 1000 | 140 | 
COc1ccc([N+](=O)[O-])cc1NC(=O)c1ccc2c(c1)C(=O)OC2=O [(II)4, 5-[N-(2-methoxy-5-nitrophenyl)carbamoyl]-1,3-isobenzofurandione] |  |  |  | 500 | > 1000 | 70 | 
COc1ccc(Cl)cc1NC(=O)c1ccc2c(c1)C(=O)OC2=O [(II)6, 5-[N-(2-methoxy-5-chlorophenyl)carbamoyl]-1,3-isobenzofurandione] |  |  |  | 750 | > 1000 | 22 | 
O=C(Nc1ccc2c(c1)C(=O)OC2)c1ccc(Cl)cc1 [(II)7, 5-[N-(4-chlorophenyl)carbonylamino]-3-isobenzofuranone] |  |  |  | > 1000 | > 1000 | 380 | 
O=C1NC(=O)c2cc([N+](=O)[O-])c(SCc3ccc(Cl)cc3)cc21 [(II)8, 5-[N-(4-chlorophenyl)methylthio]-6-nitrophthalimide] |  |  |  | > 1000 | > 1000 | 425 | 
